US6987114B1, “Antiviral pyrimidinedione derivatives and process for the preparation thereof” (Samjin Pharmaceutical Co., Ltd, priority 1999, dated 2006)
In brackets after ≈: the same amount, converted by molar mass. Like-named read-outs stand apart in the source and are kept apart here.

Tests used:
HIV = assay: microbe, parasite or virus in culture; type: cell-based
How it was run: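 MT-4 cells (2.5×10^5 cells/ml) infected with 1000 CCID50 HIV, added at once to compound dilutions, incubated 4 or 5 days at 37° C. Protection from virus-induced cytopathic effect read by MTT; cytotoxicity from MTT viability of mock-infected cells in parallel.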

mock-infected MT-4 cells = assay: Cytotoxicity based on viability of mock-infected host cells (MTT method); type: cell-based; settings: mock-infected MT-4 cells, MTT method, 4 or 5 days at 37° C.
How it was run: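 Mock-infected MT-4 cells at 2.5×10^5 cells/ml were exposed to various concentrations of test compound, run in parallel with HIV-infected (1000 CCID50) cultures. After 4 or 5 days at 37° C., host-cell viability was read by MTT.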

[1] = Human immunodeficiency virus 1, MT4, HIV-infected MT-4 cells, MTT method, 4 or 5 days at 37° C., read-out: ED50 (the source's name)
[2] = Human immunodeficiency virus 1, MT4, read-out: ED50

| Compound | EC50 (HIV; [1]) [µg/mL] | CD50 (mock-infected MT-4 cells) [µg/mL] | melting point [°C] | EC50 (HIV; [2]) [µg/mL] |
| --- | --- | --- | --- | --- |
| CCc1c(Oc2cc(C)cc(C)c2)n(Cn2nnc3ccccc32)c(=O)[nH]c1=O [Example 141, 1-(1H-benzotriazol-1-ylmethyl)-5-ethyl-6-(3,5-dimethylphenoxy)-2,4-pyrimidinedione] | 0.11 (≈ 0.281 µM) | 27.60 | 248 to 249 |  |
| CCc1c(Sc2cc(C)cc(C)c2)n(Cc2ccccc2C#N)c(=O)[nH]c1=O [Example 37, 1-(2-Cyanobenzyl)-5-ethyl-6-(3,5-dimethylphenyl)thio-2,4-pyrimidinedione] | 0.043 (≈ 0.11 µM) | >100.00 | 221 to 223 |  |
| Cc1cc(C)cc(C(=O)c2c(C(C)C)c(=O)[nH]c(=O)n2Cc2cccc(Cl)n2)c1 [Example 126, 1-(2-Chloropyridin-6-ylmethyl)-5-isopropyl-6-(3,5-dimethylbenzoyl)-2,4-pyrimidinedione] | 0.011 (≈ 0.0267 µM) | 9.85 | 206 to 208 |  |
| Cc1cc(C)cc(Cn2c(C(=O)c3cc(C)cc(C)c3)c(C(C)C)c(=O)[nH]c2=O)c1 [Example 54, 1-(3,5-Dimethylbenzyl)-5-isopropyl-6-(3,5-dimethylbenzoyl)-2,4-pyrimidinedione] |  | 7.10 | 228 to 230 | 0.014 (≈ 0.0346 µM) |
| Cc1cc(C)cc(C(=O)c2c(C(C)C)c(=O)[nH]c(=O)n2CC2CCC2)c1 [Example 12, 1-(Cyclobutyl)methyl-5-isopropyl-6-(3,5-dimethylbenzoyl)-2,4-pyrimidinedione] | 0.0027 (≈ 0.00762 µM) | 8.5 | 171 to 173 |  |
| CCc1c(C(=O)c2cc(C)cc(C)c2)n(Cc2cccc(Cl)n2)c(=O)[nH]c1=O [Example 125, 1-(2-Chloropyridin-6-ylmethyl)-5-ethyl-6-(3,5-dimethyl-benzoyl)-2,4-pyrimidinedione] | 0.015 (≈ 0.0377 µM) | 9.02 | 196 to 198 |  |
| Cc1cc(C)cc(Oc2c(C(C)C)c(=O)[nH]c(=O)n2Cc2ccc3ccccc3n2)c1 [Example 134, 1-(Quinolin-2-ylmethyl)-5-isopropyl-6-(3,5-dimethyl-phenoxy)-2,4-pyrimidinedione] | 0.004 (≈ 0.00963 µM) | 66.80 | 246 to 248 |  |
| Cc1cc(C)cc(C(=O)c2c(C(C)C)c(=O)[nH]c(=O)n2CC2CCCCC2)c1 [Example 18, 1-(Cyclohexyl)methyl-5-isopropyl-6-(3,5-dimethylbenzoyl)-2,4-pyrimidinedione] |  | 8.00 | 160 to 162 | 0.013 (≈ 0.034 µM) |
| Cc1cc(C)cc(Oc2c(C(C)C)c(=O)[nH]c(=O)n2Cc2cccnc2)c1 [Example 118, 1-(Pyridin-3-ylmethyl)-5-isopropyl-6-(3,5-dimethylphenoxy)-2,4-pyrimidinedione] |  | 33.50 | 190 to 193 | 0.015 (≈ 0.041 µM) |
| Cc1cc(C)cc(C(=O)c2c(C(C)C)c(=O)[nH]c(=O)n2Cc2cc(Cl)cc(Cl)c2)c1 [Example 84, 1-(3,5-Dichlorobenzyl)-5-isopropyl-6-(3,5-dimethylbenzoyl)-2,4-pyrimidinedione] |  | 7.88 | 220 to 222 | 0.024 (≈ 0.0539 µM) |
| Cc1cc(C)cc(Sc2c(C(C)C)c(=O)[nH]c(=O)n2Cc2ccc(OC(F)(F)F)cc2)c1 [Example 32, 1-(4-Trifluoromethoxybenzyl)-5-isopropyl-6-(3,5-dimethylphenyl)thio-2,4-pyrimidinedione] | 0.017 (≈ 0.0366 µM) | 8.99 | 124 to 126 |  |
| CCc1c(Oc2cc(C)cc(C)c2)n(Cc2ccc3ccccc3n2)c(=O)[nH]c1=O [Example 133, 1-(Quinolin-2-ylmethyl)-5-ethyl-6-(3,5-dimethyl-phenoxy)-2,4-pyrimidinedione] | 0.06 (≈ 0.149 µM) | 11.70 | 220 to 222 |  |
| CCc1c(C(=O)c2cc(C)cc(C)c2)n(CC(C)=O)c(=O)[nH]c1=O [Example 159, 1-(Acetonyl)-5-ethyl-6-(3,5-dimethylbenzoyl)-2,4-pyrimidinedione] |  | 11.8 | 186 to 189 | 0.0018 (≈ 0.00548 µM) |
| CCC(=O)Cn1c(Oc2cc(C)cc(C)c2)c(CC)c(=O)[nH]c1=O [Example 161, 1-(2-Butanon-1-yl)-5-ethyl-6-(3,5-dimethylphenoxy)-2,4-pyrimidinedione] |  | 48.0 | 116 to 118 | 0.018 (≈ 0.0545 µM) |
